From patent US8685369B2, “Technetium- and rhenium-bis (heteroaryl) complexes, and methods of use thereof” (priority 2004, dated 2014)

Assay type: physicochemical
Description: The stability and robustness of the technetium-di(pyridine) complexes was assessed using challenges with free cysteine and histidine. Specifically, the experiments were performed using [^99mTc(CO)3(dipyridinemethylamine)]^+1.
[^99mTc(CO)3(H2O)3]^+ was heated with [{N,N-di(pyridyl-2-methyl)}N-butyl-phthalimide in 0.5 mL (1 mg/mL) of methanol at 100° C. for 60 minutes. […] The product eluted with methanol at 20.8 minutes. The HPLC analysis was performed using a Supelco C18 column, 25 cm×4.6 mm column (5 μm pore size), equipped with 2 cm guard using solvent A=0.05 M triethylammonium phosphate buffer pH 2.5 and solvent B=methanol. The method employed was a gradient 5-95% B, 1 mL/minute for 30 minutes. The gradient ramped from 5-95 from 3-20 minutes.

For [^99mTc(CO)3(dipyridinemethylamine)]^+1, the “stability in challenges with free cysteine and histidine” value was “stable” and the “change in the components by HPLC on incubation with cysteine” value (aqueous solution, cysteine, 18 hours at 37° C. at pH 7.4) was “no significant change”.
